Data as given in patent US10100033B2 (dated 2018).

Structure (SMILES): CCN(C(C)=O)c1cn(-c2cccnc2)nc1Cl
- melting point: 87 to 91 °C
